What was measured:
αVβ3 integrin = target: T1, αVβ3 integrin (Homo sapiens, UniProt P05106+P06756); experiment: ELISA: inhibition of binding of αVβ3 integrin (source WM-115 cell line) to coated extracellular matrix protein; details: WM-115 cell line as integrin source
T1 construct: the cell line WM-115 was used as a source of αVβ3 integrin; endogenous in cells; host or cells: WM-115 cell line
Procedure, shortened: (§1)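 Wells were coated with fibrinogen or vitronectin (10 µg/well), and integrin binding was measured by ELISA. αIIbβ3 came from human platelet membranes and αVβ3 from WM-115 cells, each preincubated with compound. Bound integrin was detected with a rabbit anti-β3 antibody, an HRP secondary and a colorimetric readout.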

αllbβ3 integrin = target: T2, αllbβ3 integrin (Homo sapiens, UniProt P05106+P08514); experiment: ELISA: inhibition of binding of αllbβ3 integrin membrane preparation to coated extracellular matrix protein; details: human platelet membrane preparation
T2 construct: Human platelet membrane preparations were used as a source of αllbβ3 integrin; from tissue; host or cells: human platelets (membrane preparation)
Procedure, shortened: as §1

T1 sequence (P06756 31-889 limits assumed): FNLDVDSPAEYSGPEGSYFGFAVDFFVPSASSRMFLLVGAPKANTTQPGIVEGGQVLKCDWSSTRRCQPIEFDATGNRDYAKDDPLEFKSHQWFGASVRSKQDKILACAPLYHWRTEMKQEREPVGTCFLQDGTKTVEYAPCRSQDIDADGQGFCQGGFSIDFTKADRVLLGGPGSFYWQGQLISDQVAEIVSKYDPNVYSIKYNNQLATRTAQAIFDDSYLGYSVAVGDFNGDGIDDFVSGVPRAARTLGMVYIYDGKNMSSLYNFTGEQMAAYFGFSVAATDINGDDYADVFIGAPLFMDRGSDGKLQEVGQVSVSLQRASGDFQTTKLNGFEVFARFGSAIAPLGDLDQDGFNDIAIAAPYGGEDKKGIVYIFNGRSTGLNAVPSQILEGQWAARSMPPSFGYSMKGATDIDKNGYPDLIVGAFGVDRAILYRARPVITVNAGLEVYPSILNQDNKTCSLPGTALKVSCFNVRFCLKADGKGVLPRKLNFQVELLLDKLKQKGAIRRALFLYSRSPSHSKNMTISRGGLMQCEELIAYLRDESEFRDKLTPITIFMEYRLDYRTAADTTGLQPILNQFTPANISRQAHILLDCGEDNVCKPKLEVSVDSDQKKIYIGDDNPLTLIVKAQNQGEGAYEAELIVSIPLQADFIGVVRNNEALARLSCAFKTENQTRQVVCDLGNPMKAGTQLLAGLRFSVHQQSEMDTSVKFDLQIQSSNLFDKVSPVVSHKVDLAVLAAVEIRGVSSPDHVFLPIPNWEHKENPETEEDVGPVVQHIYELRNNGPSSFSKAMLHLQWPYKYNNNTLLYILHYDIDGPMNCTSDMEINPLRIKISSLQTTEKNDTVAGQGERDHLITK
T1 sequence (P06756 891-1048 partner limits assumed): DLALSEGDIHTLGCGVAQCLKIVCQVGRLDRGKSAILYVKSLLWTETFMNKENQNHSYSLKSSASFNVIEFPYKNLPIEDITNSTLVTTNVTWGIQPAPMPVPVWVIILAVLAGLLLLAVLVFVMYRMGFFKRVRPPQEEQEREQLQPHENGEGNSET
T1 sequence (P05106 27-788): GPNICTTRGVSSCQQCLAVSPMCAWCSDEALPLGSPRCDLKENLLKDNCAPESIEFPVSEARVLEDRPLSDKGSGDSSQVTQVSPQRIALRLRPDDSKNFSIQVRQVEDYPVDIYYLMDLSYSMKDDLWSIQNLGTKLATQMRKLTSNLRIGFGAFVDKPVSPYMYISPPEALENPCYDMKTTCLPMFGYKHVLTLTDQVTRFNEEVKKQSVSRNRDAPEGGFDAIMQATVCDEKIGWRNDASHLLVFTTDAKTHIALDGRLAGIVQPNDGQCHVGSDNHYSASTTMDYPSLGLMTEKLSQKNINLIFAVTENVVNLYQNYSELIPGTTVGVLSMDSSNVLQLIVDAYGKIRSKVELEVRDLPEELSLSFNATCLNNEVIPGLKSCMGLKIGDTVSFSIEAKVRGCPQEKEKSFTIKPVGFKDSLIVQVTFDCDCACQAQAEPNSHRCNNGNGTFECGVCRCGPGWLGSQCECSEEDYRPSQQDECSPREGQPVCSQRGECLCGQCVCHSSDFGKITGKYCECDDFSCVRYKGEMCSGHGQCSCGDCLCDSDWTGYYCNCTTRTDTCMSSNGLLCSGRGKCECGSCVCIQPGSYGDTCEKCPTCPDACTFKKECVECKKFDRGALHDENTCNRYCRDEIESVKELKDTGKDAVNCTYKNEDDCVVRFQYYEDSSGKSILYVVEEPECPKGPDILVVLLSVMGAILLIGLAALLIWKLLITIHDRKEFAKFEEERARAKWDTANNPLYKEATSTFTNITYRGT
T2 sequence (P08514 32-887 limits assumed): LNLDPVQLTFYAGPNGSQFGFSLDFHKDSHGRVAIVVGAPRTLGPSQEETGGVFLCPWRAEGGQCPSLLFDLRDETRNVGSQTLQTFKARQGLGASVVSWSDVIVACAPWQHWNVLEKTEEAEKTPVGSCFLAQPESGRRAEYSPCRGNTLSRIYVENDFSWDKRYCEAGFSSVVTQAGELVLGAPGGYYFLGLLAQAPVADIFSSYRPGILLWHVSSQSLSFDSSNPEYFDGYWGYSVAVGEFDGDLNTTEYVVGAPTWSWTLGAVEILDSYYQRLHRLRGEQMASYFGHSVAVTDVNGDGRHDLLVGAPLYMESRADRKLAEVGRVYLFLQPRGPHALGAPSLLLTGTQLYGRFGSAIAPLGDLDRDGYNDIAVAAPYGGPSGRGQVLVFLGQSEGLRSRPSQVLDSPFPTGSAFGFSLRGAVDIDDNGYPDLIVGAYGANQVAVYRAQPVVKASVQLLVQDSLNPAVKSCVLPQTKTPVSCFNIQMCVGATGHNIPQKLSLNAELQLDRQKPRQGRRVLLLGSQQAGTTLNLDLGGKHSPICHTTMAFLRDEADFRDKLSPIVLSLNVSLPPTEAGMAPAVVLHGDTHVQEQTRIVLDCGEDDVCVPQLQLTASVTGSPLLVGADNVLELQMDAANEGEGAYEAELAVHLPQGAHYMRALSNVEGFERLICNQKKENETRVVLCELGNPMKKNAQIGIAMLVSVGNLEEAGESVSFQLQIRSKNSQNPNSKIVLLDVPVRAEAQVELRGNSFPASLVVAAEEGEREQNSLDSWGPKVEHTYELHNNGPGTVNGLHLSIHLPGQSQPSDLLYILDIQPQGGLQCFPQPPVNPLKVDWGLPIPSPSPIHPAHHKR
T2 sequence (P08514 891-1039 partner limits assumed): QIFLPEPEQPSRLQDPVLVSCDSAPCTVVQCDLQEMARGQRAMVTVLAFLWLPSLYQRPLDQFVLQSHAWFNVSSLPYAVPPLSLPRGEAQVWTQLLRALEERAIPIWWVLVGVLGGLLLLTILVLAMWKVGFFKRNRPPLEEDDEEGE
T2 sequence (P05106 27-788): as the sequence (P05106 27-788) above

SMILES | INHIBITION 250 uM RECEPTOR aVb3 SUBSTRATE FIBRINOGEN (αVβ3 integrin) | INHIBITION @ 250 uM RECEPTOR allBb3 SUBSTRATE FIBRINOGEN (αllbβ3 integrin) | INHIBITION 250 uM RECEPTOR allBb3 SUBSTRATE VITRONECTIN (αllbβ3 integrin)
CCOCC1OC(OCc2ccccc2)C(NC(=O)c2cccc(N)c2)C(OCc2ccc(C(=O)O)cc2)C1O (single isomer, unassigned) [Compound 100] | − (0% to 35% inhibition at 250 micromolar) | − (0% to 35% inhibition at 250 micromolar) | +++ (81% to 100% inhibition at 250 micromolar)
Nc1cccc(C(=O)NC2C(OCc3ccccc3)OC(CO)C(O)C2OCc2ccc(C(=O)O)cc2)c1 (single isomer, unassigned) [Compound 101] | + (36% to 60% inhibition at 250 micromolar) | − (0% to 35% inhibition at 250 micromolar) | ++ (61% to 80% inhibition at 250 micromolar)
Nc1cccc(C(=O)NC2C(OCc3ccccc3)OC(CO)C(O)C2OCc2ccc(C(=O)O)cc2)c1 (single isomer, unassigned) [Compound 102] | +++ (81% to 100% inhibition at 250 micromolar) | − (0% to 35% inhibition at 250 micromolar) | +++ (81% to 100% inhibition at 250 micromolar)
CCC(=O)NC1C(OCc2ccccc2)OC(COCc2cccc(N)c2)C(O)C1OCc1ccc(C(=O)O)cc1 (single isomer, unassigned) [Compound 103] | +++ (81% to 100% inhibition at 250 micromolar) | ++ (61% to 80% inhibition at 250 micromolar) | +++ (81% to 100% inhibition at 250 micromolar)
CCC(=O)NC1C(OCc2ccccc2)OC(COCc2cccc(N)c2)C(O)C1OCc1ccc(C(=O)O)cc1 (single isomer, unassigned) [Compound 104] | − (0% to 35% inhibition at 250 micromolar) | − (0% to 35% inhibition at 250 micromolar) | +++ (81% to 100% inhibition at 250 micromolar)
COCC1OC(OCc2ccccc2)C(NC(=O)c2ccc(C(=O)O)cc2)C(OCc2cccc(N)c2)C1O (single isomer, unassigned) [Compound 105] | − (0% to 35% inhibition at 250 micromolar) | +++ (81% to 100% inhibition at 250 micromolar) | ++ (61% to 80% inhibition at 250 micromolar)
COCC1OC(OCc2ccccc2)C(NC(=O)c2ccc(C(=O)O)cc2)C(OCc2cccc(N)c2)C1O (single isomer, unassigned) [Compound 106] | − (0% to 35% inhibition at 250 micromolar) | + (36% to 60% inhibition at 250 micromolar) | +++ (81% to 100% inhibition at 250 micromolar)
CCOCC1OC(OCc2ccccc2)C(NC(=O)c2ccc(C(=O)O)cc2)C(OCc2cccc(N)c2)C1O (single isomer, unassigned) [Compound 107] | − (0% to 35% inhibition at 250 micromolar) | − (0% to 35% inhibition at 250 micromolar) | +++ (81% to 100% inhibition at 250 micromolar)
CCOCC1OC(OCc2ccccc2)C(NC(=O)c2ccc(C(=O)O)cc2)C(OCc2cccc(N)c2)C1O (single isomer, unassigned) [Compound 108] | − (0% to 35% inhibition at 250 micromolar) | − (0% to 35% inhibition at 250 micromolar) | +++ (81% to 100% inhibition at 250 micromolar)
Nc1cccc(COC2C(O)C(CO)OC(OCc3ccccc3)C2NC(=O)c2ccc(C(=O)O)cc2)c1 (single isomer, unassigned) [Compound 109] | − (0% to 35% inhibition at 250 micromolar) | − (0% to 35% inhibition at 250 micromolar) | +++ (81% to 100% inhibition at 250 micromolar)
